A word on the IC50: it is the midpoint of a concentration-inhibition curve.

Tested on in one data set: not given
Assay: not given
The note with it: Summary and Clinical Data, Sandoz, Canada Inc. (1990); a case of death also reported; cited from earlier work.
As to `CN1CCN(C2=Nc3cc(Cl)ccc3Nc3ccccc32)CC1` [clozapine], the blood disorder result was “agranulocytosis”.

The data set is the same for the next values; noted with them: clinical experiments, compared with dopamine D2 receptor antagonist; cited from earlier work.
For `CN1CCN(C2=Nc3cc(Cl)ccc3Nc3ccccc32)CC1` [clozapine], the extrapyramidal disorder result is recorded as “less extrapyramidal disorder”.

Another data set deals with T1, human D4.2 receptor (Homo sapiens, UniProt P21917, DEL265-296).
T1 sequence (P21917 with tags, fused parts or gaps DEL265-296): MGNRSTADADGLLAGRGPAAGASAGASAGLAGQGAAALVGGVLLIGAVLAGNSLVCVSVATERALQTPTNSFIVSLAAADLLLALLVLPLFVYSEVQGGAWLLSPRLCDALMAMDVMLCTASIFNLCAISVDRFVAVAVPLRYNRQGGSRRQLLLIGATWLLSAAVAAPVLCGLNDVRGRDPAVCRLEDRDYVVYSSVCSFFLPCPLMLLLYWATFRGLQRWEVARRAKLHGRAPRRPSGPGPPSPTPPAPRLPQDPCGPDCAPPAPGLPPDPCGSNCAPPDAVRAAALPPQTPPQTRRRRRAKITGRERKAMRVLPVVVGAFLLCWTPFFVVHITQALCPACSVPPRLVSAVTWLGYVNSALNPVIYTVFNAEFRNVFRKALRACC
Put plainly: Dopamine D4 receptor binding experiment ([3H]-spiperone). The note with it: CHO cell membranes expressing human D4.2 receptor, [3H]-spiperone (0.5 nM), 27°C, 2 hours. The procedure: As a receptor preparation, Chinese hamster ovary (CHO) cell membranes where human D4.2 receptor was expressed were used.
As [^3H]-labeled ligand, [^3H]-spiperone was used.
Human D4.2 receptor binding test: CHO cell membranes where human D4.2 receptor was expressed, [^3H]-spiperone (0.5 nM) and a test drug were reacted at 27°C for 2 hours in 50 mM Tris-HCl buffer, pH 7.4 containing 5 mM EDTA, 1.5 mM calcium chloride, 5 mM potassium chloride and 120 mM sodium chloride.
After the reaction, the sample was filtered under suction through a glass filter (GF/B), and the radioactivity of the filter paper was determined in a liquid scintillation spectrometer.
The binding of [^3H]-spiperone in the presence of 10 µM haloperidol was assumed to be non-specific binding, and the difference between the total binding and the non-specific binding was assumed to be specific binding.
The compound `Nc1nc(-c2ccc(F)cc2)c(CCN2CCC(Cc3ccccc3)CC2)s1` [Compound K-04] yielded an IC50 of 46.4 nM.
Still for that read-out and setting: for `Nc1nc(-c2ccc(F)cc2)c(C2CCN(CCCn3c(=O)ccc4cc(F)ccc43)C2)s1` (centres unmarked) [Compound H-03] the value was 61.4 nM; for `Nc1nc(-c2ccc(F)cc2)c(CCN2CCC(C(=O)c3ccc(F)cc3)CC2)s1` [Compound K-01, 2-amino-4-(4-fluorophenyl)-5-[2-[4-(4-fluorobenzoyl)piperidin-1-yl]ethyl]thiazole], 7.92 nM; for `Nc1nc(-c2ccc(F)cc2)c(C2CCN(CCCN3C(=O)CCc4cc(F)ccc43)C2)s1` (centres unmarked) [Compound H-04], 46.4 nM.
In the case of `Cc1nc(-c2ccccc2)c(CCN2CCC(C(=O)c3ccc(F)cc3)CC2)s1` [Compound K-30], the half-maximal inhibitory concentration (IC50) is 2.15 nM.
On to `Nc1nc(-c2ccc(F)cc2)c(C2CCN(CCCN3C(=O)CCc4ccccc43)C2)s1` (centres unmarked) [Compound H-02], for which the IC50 came to 81.1 nM.
With `Cc1ccc(C(=O)C2CCN(CCc3sc(N)nc3-c3ccc(F)cc3)CC2)cc1` [Compound K-16], the IC50 was 9.55 nM.
The compound `C=C(c1ccc(F)cc1)C1CCN(CCc2sc(N)nc2-c2ccc(F)cc2)CC1` [Compound K-18] showed an IC50 of 20.1 nM.
Regarding `Nc1nc(-c2ccc(F)cc2)c(C2CCN(CCCN3C(=O)Cc4ccccc43)C2)s1` (centres unmarked) [Compound H-07], the IC50 was determined as 89 nM.
`COc1ccc(C(=O)C2CCN(CCc3sc(C)nc3-c3ccc(F)cc3)CC2)cc1` [Compound K-22] yielded an IC50 of 38.5 nM.
The compound `Cc1nc(-c2ccc(Br)cc2)c(CCN2CCC(C(=O)c3ccc(F)cc3)CC2)s1` [Compound K-27] returned an IC50 of 4.98 nM.
Turning to `Nc1nc(-c2ccc(F)cc2)c(C2CCN(CCCc3noc4cc(F)ccc34)C2)s1` (single isomer, unassigned) [Compound F-07], the IC50 was 11.8 nM.
`COc1ccc(-c2nc(C)sc2CCN2CCC(C(=O)c3ccc(F)cc3)CC2)cc1` [Compound K-28]: the IC50 amounted to 1.63 nM.

The data set is the same for the next values; noted with them: inhibition of [3H]-spiperone binding, human D4.2 receptor.
Compound `Fc1ccc(-c2ncsc2CCN2CCC(=Cc3ccccc3)CC2)cc1` [Compound L-33] yielded an IC50 of 3.43 nM.
Consider `COc1ccc(C=C2CCN(CCc3sc(C)nc3-c3ccc(F)cc3)CC2)cc1` [Compound L-26], for which the IC50 is 16.7 nM.
Regarding `Cc1nc(-c2ccc(F)cc2)c(CCN2CCC(=Cc3ccc(Cl)cc3)CC2)s1` [Compound L-24], the IC50 worked out at 11.5 nM.
In turn, `Nc1nc(-c2ccc(F)cc2)c(CCN2CCC(=Cc3cccc(C(F)(F)F)c3)CC2)s1` [Compound L-13] showed an IC50 of 24.2 nM.
`O=C(c1ccccc1)C1CCN(CCc2scnc2-c2ccc(F)cc2)CC1` [Compound K-34] gave an IC50 of 20.1 nM.
In the case of `COc1ccc(-c2nc(C)sc2CCN2CCC(=Cc3ccc(F)cc3)CC2)cc1Br` [Compound L-22], the IC50 came out at 13.9 nM.
The same measure, in the same setting: for `Cc1nc(-c2ccc(Br)cc2)c(CCN2CCC(=Cc3ccc(F)cc3)CC2)s1` [Compound L-19] the value was 16.7 nM.
With `Nc1nc(-c2ccc(F)cc2)c(CCN2CCC(CC(=O)c3ccc(F)cc3)C2)s1` (centres unmarked) [Compound K-37], the IC50 was found to be 10.5 nM.
In turn, `COc1ccc(-c2nc(N)sc2CCN2CCC(=Cc3ccc(F)cc3)CC2)cc1` [Compound L-05] came in with an IC50 of 18.3 nM.
`Cc1nc(-c2ccc(Cl)cc2)c(CCN2CCC(=Cc3ccc(F)cc3)CC2)s1` [Compound L-18] came in with an IC50 of 9.55 nM.
For `Cc1nc(-c2ccc(F)cc2)c(CCN2CCC(=Cc3ccc(F)cc3)CC2)s1` [Compound L-17], the IC50 amounted to 12.6 nM.
Turning to `Cc1nc(-c2ccc(F)cc2)c(CCN2CCC(=Cc3cccc(C(F)(F)F)c3)CC2)s1` [Compound L-29], the IC50 is 10.5 nM.
With `Nc1nc(-c2ccc(F)cc2)c(CCN2CCC(=Cc3ccccc3F)CC2)s1` [Compound L-12], the IC50 was determined as 2.36 nM.
The compound `O=C(c1ccc(F)cc1)C1CCN(CCc2scnc2-c2ccc(F)cc2)CC1` [Compound K-33] showed an IC50 of 2.36 nM.
In turn, `CC(=C1CCN(CCc2sc(C)nc2-c2ccc(F)cc2)CC1)c1ccc(F)cc1` [Compound L-31] had an IC50 of 16.7 nM.
`C=C(c1ccc(F)cc1)C1CCN(CCc2sc(C)nc2-c2ccc(F)cc2)CC1` [Compound K-32] showed an IC50 of 12.6 nM.
Turning to `Nc1nc(-c2ccc(F)cc2)c(CCN2CCC(=Cc3cccc(F)c3)CC2)s1` [Compound L-11], the half-maximal inhibitory concentration (IC50) amounted to 2.85 nM.
